Marks after values point to notes of the source that are not given here.
Legend:
[1] = tested on: S. typhi; experiment: Irradiation sensitivity (D10) of S. typhi in ground beef; assay type: cell-based, Salmonella typhi (ATCC 19430)
[2] = tested on: S. typhi; experiment: Shelf life study, S. typhi in ground beef irradiated at 0.85 kGy; assay type: cell-based, Salmonella typhi; conditions: stored at 4° C., thymol 1.6%
Procedure: (§1) Irradiation treatments of ground beef samples for D10 and shelf life determination were performed using UC-15B irradiator (MDS-Nordion International Inc., Kanata, ON, Canada) equipped with a ^60 Co source at a dose rate of 14.42 kGy/h). Irradiation doses used for D10 determination were ranged from 0.25 to 0.55 kGy for E. coli, from 0.50 to 2.0 kGy for S. typhi, and from 0.5 to 2.5 kGy for the mixture of indigenous microorganisms of ground beef. The shelf life study was performed on samples irradiated at 0.30, 0.85, and 1.75 kGy for E. coli, S. typhi, and the mixture of indigenous microorganisms of ground beef, respectively. For each active compound concentration tested, a group of non-irradiated samples sened as a control. For D10 determination, samples were analysed immediately after irradiation. For shelf life studies, samples were stored at 4° C. and analysed periodically.
(§2) Microbial analysis was performed by homogenising the samples for 2 mn in sterile peptone water (0.1%) using a Lab-blender 400 stomacher (Laboratory Equipment, London, UK). From this mixture, serial dilutions were prepared and appropriate ones were pour-plated in tryptic soy agar (TSA) (Difco, Laboratories, Detroit, Mich., USA) and incubated at 35° C., 24 hours for the numeration of E. coli and S. typhi. For the ground beef broth, the incubation was performed on Plate Count Agar (PCA; Difco) at 35° C. for 48 h for the numeration mesophilic bacteria, and at 7° C. for 10 days for the numeration of psychrotrophic bacteria. Enterobacteriaceae were numerated on Violet Red Bile Glucose Agar (VRBGA; Difco) 35° C. for 48 hours.
(§3) A shelf life study was undertaken to evaluate the radiation sensitivity during refrigerated storage conditions. Ground beef samples contaminated with E. coli, S. typhi, or a mixture of indigenous micro-organisms were irradiated in presence or absence of selected active compounds. Due to the differences in sensitivity between the micro-organisms under study, the following irradiation doses were used: 0.30 kGy for E. coli, 0.85 kGy for S. typhi, and 1.75 kGy for the mixture of indigenous bacteria. The irradiation doses selected corresponded to the irradiation dose needed to produce 3 log CFU reduction in bacterial population in the control sample (without active compounds).

[3] = tested on: E. coli; experiment: Irradiation sensitivity (D10) of E. coli in ground beef; assay type: cell-based, Escherichia coli (ATCC 25922)
[4] = tested on: Mixture of indigenous bacteria; experiment: Example 4 irradiation sensitivity (D10) of indigenous bacteria of ground beef; assay type: cell-based; conditions: thymol […], trans-cinnamaldehyde […]
Procedure: as §1
Microbial analysis was performed by homogenising the samples for 2 mn in sterile peptone water (0.1%) using a Lab-blender 400 stomacher (Laboratory Equipment, London, UK). […]
The kinetics of bacteria destruction by irradiation with or without the food additives was evaluated by linear regression. Bacterial counts (log CFU/ml) were plotted against irradiation doses or active compounds concentration and D10 values were calculated using the PROC REG procedure of SAS (SAS Institute, Cary, N.C., USA). […]

[5] = tested on: mesophilic bacteria; experiment: Shelf life study, indigenous micro-organisms of ground beef, mesophilic count; assay type: cell-based; conditions: for shelf life period: 4° C., thymol […]
Procedure: as §1, §2, §3
(§4) The shelf life study in ground beef contaminated with the mixture of indigenous microorganisms of ground beef was conducted by evaluating mesophilic, psychrotrophic and total Enterobacteriaceae in the samples. […] Irradiation reduced the bacterial counts by various degrees depending on the type of active compound used: 3 log CFU reduction for control (without active compounds), 3.5 and more than 5 log CFU reduction for samples containing thymol and trans-cinnamaldehyde, respectively. […] Bacterial counts in both sarnples remained below detectable levels even after 44 days. […] A similar effect was also observed during storage for irradiated samples containing thymol as compared to samples without thymol. Between day 5 and day 15, a difference of 2 to 3 log CFU was observed between the two groups of samples.

[6] = tested on: mixture of indigenous microorganisms of ground beef (mesophilic and psychrotrophic bacteria); experiment: Shelf life study, indigenous micro-organisms of ground beef, statements for mesophilic and psychrotrophic bacteria together; assay type: cell-based; conditions: for reduction of bacterial counts by irradiation: control 3 log CFU; for storage time before a bacterial count of approximately 6 log is reached: meat treated with formulation in conjunction with irradiation, about 8 days with irradiation alone
Procedure: as §1, §2, §3, §4

[7] = tested on: psychrotrophic bacteria; experiment: Shelf life study, indigenous micro-organisms of ground beef, psychrotrophic count; assay type: cell-based
Procedure: as §1, §2
A shelf life study was undertaken to evaluate the radiation sensitivity during refrigerated storage conditions. Ground beef samples contaminated with E. coli, S. typhi, or a mixture of indigenous micro-organisms were irradiated in presence or absence of selected active compounds. […]

[8] = ground beef, air, 4° C., carvacrol 1.0% alone or with ascorbic acid 0.5% and/or tetrasodium pyrophosphate 0.1%
[9] = ground beef irradiated at 1.75 kGy, thymol […], trans-cinnamaldehyde […]
[10] = ground beef packed under MAP (60% O2-30% CO2-10% N2), 4° C., trans-cinnamaldehyde […]
[11] = ground beef packed under air, 4° C., trans-cinnamaldehyde […]
[12] = ground beef under MAP, trans-cinnamaldehyde […] vs control under the same atmosphere
[13] = ground beef under air, trans-cinnamaldehyde […] vs control under the same atmosphere
[14] = ground beef, MAP vs air, both with trans-cinnamaldehyde […]
[15] = under MAP, trans-cinnamaldehyde […]
[16] = under air, trans-cinnamaldehyde […]
[17] = ground beef irradiated at 1.75 kGy, stored at 4° C., trans-cinnamaldehyde […]
[18] = trans-cinnamaldehyde alone (no irradiation), stored at 4° C.

## Cc1ccc(C(C)C)cc1O [Carvacrol, carvacrol]
[1]; [8]
  D10(kGy): 0.235 ± 0.0158^a kGy
  irradiation dose for complete elimination of S. typhi: 1.25 kGy
[1]; vs control (0.519 kGy), ground beef, air, 4° C., carvacrol 1.0% alone or with ascorbic acid 0.5% and/or tetrasodium pyrophosphate 0.1%
  Increase in Sensitivity: 54.7%
[2]; carvacrol 1.15%
  days of storage after which complete inhibition was produced: 22 days
[3]; [8]
  D10(kGy): 0.057 ± 0.0015^a kGy
  irradiation dose necessary to completely eliminate E. coli: 0.3 kGy
[3]; ground beef, air, 4° C., carvacrol 1.0% alone or with tetrasodium pyrophosphate 0.1%
  factor by which the irradiation dose necessary to completely eliminate E. coli is lower than in the absence of active compounds: 2.3
[3]; vs control, negative = protective effect, ground beef, air, 4° C., carvacrol 1.0% alone or with ascorbic acid 0.5% and/or tetrasodium pyrophosphate 0.1%
  Increase in Sensitivity: 55.5%

## Cc1ccc(C(C)C)c(O)c1 [Thymol, thymol]
[4]
  D10(kGy): 0.779 kGy
[2]; carvacrol 1.15%
  days of storage after which complete inhibition was produced: 28 days
[2]; carvacrol 1.15%, lower than control
  bacterial counts compared with the irradiated control after 15 days of storage: sinilar in both cases
[2]
  difference between samples irradiated in presence and absence of compound at day 7: 3 log CFU
[5]; irradiated samples (1.75 kGy), control 8 days
  shelf life period: 23 days
[5]; non-irradiated samples, control 2 days
  shelf life period: 8 days
[6]; ground beef irradiated at 1.75 kGy, stored at 4° C., thymol […]
  complete inhibition during storage: no complete inhibition
[6]; ground beef irradiated at 1.75 kGy, stored at 4° C., thymol […], 10^7 without thymol
  level of bacteria observed for irradiated samples during storage: 10^4 CFU/g
[6]; [9]
  reduction of bacterial counts by irradiation: 3.5 log CFU
[6]
  storage time before a bacterial count of approximately 6 log is reached: 15 days
[7]; non-irradiated samples, 4° C., thymol […], control 2 days
  shelf life period: 9 days

## O=C/C=C/c1ccccc1 [Trans-cinnamaldehyde, trans-cinnamaldehyde]
[1]; [10]
  D10(kGy): 0.110 ± 0.002^b* kGy
[1]; [11]
  D10(kGy): 0.356 ± 0.005^a* kGy
[1]; [12]
  Increase in Sensitivity: 50.2%
[1]; [13]
  Increase in Sensitivity: 32.3%
[1]; [14]
  increase in irradiation sensitivity by modification of the packaging atmosphere: 69.1%
[1]; [15]
  irradiation dose required to completely eliminate S. typhi from the ground beef: 0.6 kGy
[1]; under air, trans-cinnamaldehyde 0.89%
  irradiation dose required to completely eliminate S. typhi from ground beef: 0.75 kGy
[1]; [16]
  irradiation dose required to completely eliminate S. typhi from the ground beef: around 2 kGy
[4]
  D10(kGy): 0.494 kGy
[3]; [10]
  D10(kGy): 0.046 ± 0.001^b* kGy
[3]; [11]
  D10(kGy): 0.115 ± 0.004^a* kGy
[3]; [12]
  Increase in Sensitivity: 46.5%
[3]; [13]
  Increase in Sensitivity: 8.7%
[3]; [14]
  increase in irradiation sensitivity by modification of the packaging atmosphere: 60%
[3]; [15]
  irradiation dose needed to completely eliminate E. coli from the ground beef: 0.25 kGy
[3]; [16]
  irradiation dose needed to completely eliminate E. coli from the ground beef: 0.6 kGy
  irradiation dose to completely eliminate E. coli from ground beef: 0.2 kGy
[5]; [17]
  days after which complete inhibition of bacterial growth resulted: 3 days
[5]; [18]
  bacteria counts at day 44: ~1 log CFU/g
[5]; without irradiation, stored at 4° C., trans-cinnamaldehyde […]
  bacterial population reached after 36 days of storage: 1 log CFU
[6]; [17]
  days for which bacterial counts remained below detectable levels: ≥ 44 days
[6]; [9]
  reduction of bacterial counts by irradiation: more than 5 log CFU
[6]
  storage time before a bacterial count of approximately 6 log is reached: more than 35 days
[7]; [17]
  days after which complete inhibition of bacterial growth resulted: 1 days
[7]; [18]
  day of storage at which complete inhibition occurred: 36 days

Reference: patent US20050118310A1, “Formulations of compounds derived from natural sources and their use with irradiation for food preservation” (priority 2001, published 2005)
